Patent US20120232062A1, “AZAINDAZOLES TO TREAT FLAVIVIRIDAE VIRUS INFECTION” (EIGER BIOPHARMACEUTICALS, INC., priority 2009, published 2012)

biological target: T1, CYP 2C9 (Homo sapiens, UniProt P11712); test: CYP inhibition testing, CYP 2C9; format: in vitro ADME; conditions: human liver microsomes; >75 = low level of inhibition
T1 construct: For human liver microsome solution, a stock solution (20 mg/mL (4×final)) is used; from tissue; host or cells: human liver microsomes
Experimental: Select compounds are tested for CYP inhibition against five different CYP enzymes: CYP 1A2, CYP 2C9, CYP 2C19, CYP 2D6, CYP 3A4. Individual CYP enzymes are incubated with corresponding substrates with no inhibitor (negative control). Individual CYP enzymes are then incubated with corresponding substrates in the presence of test compound. […] Values of 70>v, w, x, y, z>30 indicate moderate level of inhibition of the corresponding enzyme.
The following reagents are used: Sodium Phosphate, monobasic; Sodium Phosphate, dibasic; β-Nicotinamide Adenine Dinucleotide Phosphate-Reduced (NADPH), Roche; Milli-Q Water; 0.1 M Potassium phosphate buffer (K-buffer), pH 7.4. The following stock solutions are used. Stock A (136.5 g of monobasic potassium phosphate in 1 L of Milli-Q water (1.0 M)). Stock B (174.2 g of dibasic potassium phosphate in 1 L of Milli-Q water (1.0 M)). 40.5 mL of Stock B is mixed with 9.5 mL of Stock A, and the total volume brought near 500 mL with Milli-Q water to give 0.1 M potassium phosphate buffer. The buffer is titrated with KOH or H3PO4 to pH 7.4. To prepare a cofactor buffer (4×, 8 mM NADPH), 66.7 mg of NADPH tetrasodium salt is dissolved in 10 mL of K-buffer. For human liver microsome solution, a stock solution (20 mg/mL (4×final)) is used.
The following Positive control stock solutions are prepared: 0.3 mM α-Naphthoflavone (MW: 272.3, 0.0817 mg of α-Naphthoflavone in 1 mL DMSO), 10 mM Sulfaphenazole (MW: 314.4, 3.14 mg of sulfaphenazole in 1 mL DMSO) 100 mM Omeprazole (MW: 345.4, 34.54 mg of omeprazole in 1 mL DMSO), 2.5 mM Quinidine (MW: 324, 0.81 mg of quinidine in 1 mL DMSO), and 2.5 mM Ketoconazole (MW: 531.4, 1.33 mg of ketoconazole in 1 mL DMSO).
The following substrate stock solutions are prepared: 6 mM Phenacetin (MW: 179.22, 1.075 mg of phenacetin in 1 mL can), 10 mM Diclofenac (MW: 318.83, 3.18 mg of Diclofenac in 1 ml H2O), 35 mM S-Mephenyloin (MW: 218.25, 7.64 mg of s-mephenyloin in 1 mL ACN 10 mM Bufuralol (MW: 297.82, 2.98 mg of Bufuralol in 1 ml H2O), 1 mM Midazolam (MW: 325.77, 0.326 mg of midazolam in 1 mL can), and 10 mM Testosterone (MW: 288.42, 2.88 mg of Testosterone in 1 ml ACN.
Test compounds and reference compounds (positive control) are prepared in 0.2 mg/ml liver microsome solution. A 0.2 mg/ml liver microsome solution (2×final) is prepared from stock solution by adding 10 μL microsome stock solutions (20 mg/ml) in 990 μL K-buffer. 8 μL of 10 mM test compound stock solution (in DMSO or other solvent at various concentrations) is diluted with 12 μL ACN to make 4 mM solutions. 1:3 serial dilutions are performed using DMSO/ACN (40:60) from 4 mM solution further down seven concentration points (400×final): 4 mM, 1.33 mM, 0.44 mM, 0.148 mM, […], 0.0165 mM, 0.00549 mM, 0 mM. […]

T1 sequence (P11712 whole entry): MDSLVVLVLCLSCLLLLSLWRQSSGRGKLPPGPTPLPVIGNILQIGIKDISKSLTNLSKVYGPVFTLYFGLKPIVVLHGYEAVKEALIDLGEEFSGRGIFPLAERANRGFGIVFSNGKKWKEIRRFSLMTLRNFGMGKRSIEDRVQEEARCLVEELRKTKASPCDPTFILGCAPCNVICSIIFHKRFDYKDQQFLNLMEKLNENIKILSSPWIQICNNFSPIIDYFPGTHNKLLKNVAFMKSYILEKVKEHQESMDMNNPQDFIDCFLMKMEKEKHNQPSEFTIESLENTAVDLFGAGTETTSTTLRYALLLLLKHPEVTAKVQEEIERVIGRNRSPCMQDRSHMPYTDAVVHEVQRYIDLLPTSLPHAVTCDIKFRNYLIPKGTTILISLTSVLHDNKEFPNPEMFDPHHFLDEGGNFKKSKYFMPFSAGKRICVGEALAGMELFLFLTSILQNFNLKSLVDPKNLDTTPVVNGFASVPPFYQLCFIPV

| SMILES | CYP (% negative controls) 2C9 [% negative controls] |
| --- | --- |
| Cn1nc(C(=O)NC2CCNCC2)c2ccc(N3CCCCCC3)nc21.O=C(O)C(F)(F)F.O=C(O)C(F)(F)F [compound 697] | 92 |
| CCC(CC)Oc1ccc2c(C(=O)NC3CCNCC3)n[nH]c2n1 [compound 726] | 84 |
| Cn1nc(C(=O)NC2CCN(CCN3CCCCC3)CC2)c2ccc(N3CCCCCC3)nc21 [compound 1047] | 91 |
| Cn1nc(CCCN2CCCC2)c2ccc(N3CCCCCCC3)nc21 [compound 1171] | 141 |
